Measured values reported in article PMC6982167, “Development of an Improved Peroxidase-Based High-Throughput Screening for the Optimization of D-Glycerate Dehydratase Activity” (International Journal of Molecular Sciences, 2020).

Columns and labels:
[1] = molecular target: T1, SsDHAD (dihydroxyacid dehydratase from Sulfolobus solfataricus) (Saccharolobus solfataricus, UniProt Q97UB2); assay: discontinuous dehydration assay, HPLC (2-keto-3-deoxygluconate); assay type: biochemical; details: 20 mM D-gluconate, 50 °C, 60 min
T1 construct: gene ilvD; full-length synthetic gene in pET24a(+) via NdeI/XhoI, reverse primer carries stop codon (no tag); E. coli BL21(DE3); heat step 70 °C with 2-mercaptoethanol, desalted; iron-sulfur cluster
T1 sequence (Q97UB2 whole entry): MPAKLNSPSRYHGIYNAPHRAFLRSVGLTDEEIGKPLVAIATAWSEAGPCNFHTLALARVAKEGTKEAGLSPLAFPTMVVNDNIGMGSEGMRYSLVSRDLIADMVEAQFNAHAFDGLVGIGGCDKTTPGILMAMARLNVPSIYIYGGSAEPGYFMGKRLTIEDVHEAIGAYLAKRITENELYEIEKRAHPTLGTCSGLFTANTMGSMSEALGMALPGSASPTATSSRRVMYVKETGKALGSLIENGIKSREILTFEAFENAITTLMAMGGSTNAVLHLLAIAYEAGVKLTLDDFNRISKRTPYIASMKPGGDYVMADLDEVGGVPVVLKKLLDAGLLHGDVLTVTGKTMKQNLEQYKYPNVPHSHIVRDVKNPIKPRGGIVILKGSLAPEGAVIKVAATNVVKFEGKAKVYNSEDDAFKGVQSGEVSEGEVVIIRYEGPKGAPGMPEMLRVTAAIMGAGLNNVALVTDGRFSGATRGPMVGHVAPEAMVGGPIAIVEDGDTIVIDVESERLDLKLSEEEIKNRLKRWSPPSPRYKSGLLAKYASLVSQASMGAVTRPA

[2] = molecular target: T1, SsDHAD (dihydroxyacid dehydratase from Sulfolobus solfataricus); assay: discontinuous dehydration assay, pyruvate by HPLC; assay type: biochemical; details: supplied as D/L-glycerate 40 mM, pH 7.0, 50 °C, 60 min

| Structure (SMILES) | specific activity [1] | specific activity [2] |
| --- | --- | --- |
| O=C(O)[C@H](O)[C@@H](O)[C@H](O)[C@H](O)CO [D-gluconate] | we also tested the conversion of D-gluconate to 2-keto-deoxy gluconate | – |
| O=C(O)[C@H](O)CO [D-glycerate] | – | wildtype showed an activity for the dehydration of D-glycerate |
